Measurements reported in patent publication US10946383B2, “Oligonucleotide encoded chemical libraries” (Plexium, Inc., priority 2017, dated 2021).

Molecular target: Cathepsin-D protease (Homo sapiens, UniProt P07339)
Assay: Cathepsin-D protease inhibition assay in picowells with bead-released compound and Peptide Q-Fluor substrate
Assay type: biochemical
Conditions: compound released from 10 μm TentaGel beads by UV (365 nm, 77 J/cm^2) to approximately 13 μM; 30 min, 37° C.

Chain of Cathepsin-D protease (P07339 65-412): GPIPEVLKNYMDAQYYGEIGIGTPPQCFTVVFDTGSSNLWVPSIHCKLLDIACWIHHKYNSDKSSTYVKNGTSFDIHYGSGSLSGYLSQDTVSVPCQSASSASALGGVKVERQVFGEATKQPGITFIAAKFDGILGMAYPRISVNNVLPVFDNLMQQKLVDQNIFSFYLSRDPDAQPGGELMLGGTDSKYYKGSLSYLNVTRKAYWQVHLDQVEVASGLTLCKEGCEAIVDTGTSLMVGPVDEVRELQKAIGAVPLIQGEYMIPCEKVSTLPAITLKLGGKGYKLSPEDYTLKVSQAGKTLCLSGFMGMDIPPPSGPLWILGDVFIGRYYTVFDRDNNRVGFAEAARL

Cathepsin-D inhibition (fluorescence of cleaved Peptide Q-Fluor substrate): no Cathepsin-D inhibition
Structure (SMILES): CC(C)[C@H](NC(=O)OCC1c2ccccc2-c2ccccc21)C(=O)O [negative control beads, Fmoc-Valine]
